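Grown in 96-well plates, cells were treated for 48 hours with each compound at five concentrations. Insufficient inhibition: endpoint recorded as highest concentration tested. Abbreviation: GI50, concentration required for 50% inhibition of growth. TGI denotes the concentration required for complete inhibition of growth.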
Tests used:
Assay in all cases: NCI tumour cell line growth inhibition, 48 h
786-0 renal = test system: 786-0 renal
A498 renal = test system: A498 renal
A549 NSCLC = test system: A549 NSCLC
ACHN renal = test system: ACHN renal
CCRF-CEM leukemia = test system: CCRF-CEM leukemia
COLO 205 colon = test system: COLO 205 colon
DLD-1 colon = test system: DLD-1 colon
DMS 114 small cell lung = test system: DMS 114 small cell lung
DMS 273 small cell lung = test system: DMS 273 small cell lung
EKVX NSCLC = test system: EKVX NSCLC
HCC-2998 colon = test system: HCC-2998 colon
HCT-116 colon = test system: HCT-116 colon
HCT-15 colon = test system: HCT-15 colon
HL-60(TB) leukemia = test system: HL-60(TB) leukemia
HOP-18 NSCLC = test system: HOP-18 NSCLC
HOP-62 NSCLC = test system: HOP-62 NSCLC
HOP-92 NSCLC = test system: HOP-92 NSCLC
HT29 colon = test system: HT29 colon
IGROV1 ovarian = test system: IGROV1 ovarian
K-562 leukemia = test system: K-562 leukemia
KM20L2 colon = test system: KM20L2 colon
LXFL 529 NSCLC = test system: LXFL 529 NSCLC
M14 melanoma = test system: M14 melanoma
M19-MEL melanoma = test system: M19-MEL melanoma
MALME-3M melanoma = test system: MALME-3M melanoma
MOLT-4 leukemia = test system: MOLT-4 leukemia
NCI-H226 lung = test system: NCI-H226 lung
NCI-H23 lung = test system: NCI-H23 lung
NCI-H522 lung = test system: NCI-H522 lung
OVCAR-4 ovarian = test system: OVCAR-4 ovarian
OVCAR-8 ovarian = test system: OVCAR-8 ovarian
RPMI-8226 leukemia = test system: RPMI-8226 leukemia
RXF 393 renal = test system: RXF 393 renal
SF-268 CNS = test system: SF-268 CNS
SF-295 CNS = test system: SF-295 CNS
SF-539 CNS = test system: SF-539 CNS
SK-MEL-28 melanoma = test system: SK-MEL-28 melanoma
SK-MEL-5 melanoma = test system: SK-MEL-5 melanoma
SK-OV-3 ovarian = test system: SK-OV-3 ovarian
SN12C renal = test system: SN12C renal
SNB-19 CNS = test system: SNB-19 CNS
SNB-75 CNS = test system: SNB-75 CNS
SNB-78 CNS = test system: SNB-78 CNS
SR leukemia = test system: SR leukemia
SW-620 colon = test system: SW-620 colon
U251 CNS = test system: U251 CNS
UACC-257 melanoma = test system: UACC-257 melanoma
UACC-62 melanoma = test system: UACC-62 melanoma
UO-31 renal = test system: UO-31 renal
CAKI-1 renal = test system: CAKI-1 renal
KM12 colon = test system: KM12 colon
LOX IMVI melanoma = test system: LOX IMVI melanoma
NCI-H460 lung = test system: NCI-H460 lung
OVCAR-3 ovarian = test system: OVCAR-3 ovarian
SK-MEL-2 melanoma = test system: SK-MEL-2 melanoma
TK-10 renal = test system: TK-10 renal
XF 498 CNS = test system: XF 498 CNS

C=CCOC(C)n1c(C)cc(=O)n(C(C)OCC=C)c1=O (stereo unspecified)
TGI (786-0 renal): > 100 µM
TGI (A498 renal): > 100 µM
TGI (A549 NSCLC): > 100 µM
TGI (ACHN renal): > 100 µM
TGI (CCRF-CEM leukemia): > 100 µM
TGI (COLO 205 colon): > 100 µM
TGI (DLD-1 colon): > 100 µM
TGI (DMS 114 small cell lung): > 100 µM
TGI (DMS 273 small cell lung): > 100 µM
TGI (EKVX NSCLC): > 100 µM
TGI (HCC-2998 colon): > 100 µM
TGI (HCT-116 colon): > 100 µM
TGI (HCT-15 colon): > 100 µM
TGI (HL-60(TB) leukemia): > 100 µM
TGI (HOP-18 NSCLC): > 100 µM
TGI (HOP-62 NSCLC): > 100 µM
TGI (HOP-92 NSCLC): > 100 µM
TGI (HT29 colon): > 100 µM
TGI (IGROV1 ovarian): > 100 µM
TGI (K-562 leukemia): > 100 µM
TGI (KM20L2 colon): > 100 µM
TGI (LXFL 529 NSCLC): > 100 µM
TGI (M14 melanoma): > 100 µM
TGI (M19-MEL melanoma): > 100 µM
TGI (MALME-3M melanoma): > 100 µM
TGI (MOLT-4 leukemia): > 100 µM
TGI (NCI-H226 lung): > 100 µM
TGI (NCI-H23 lung): > 100 µM
TGI (NCI-H522 lung): > 100 µM
TGI (OVCAR-4 ovarian): > 100 µM
TGI (OVCAR-8 ovarian): > 100 µM
TGI (RPMI-8226 leukemia): > 100 µM
TGI (RXF 393 renal): > 100 µM
TGI (SF-268 CNS): > 100 µM
TGI (SF-295 CNS): > 100 µM
TGI (SF-539 CNS): > 100 µM
TGI (SK-MEL-28 melanoma): > 100 µM
TGI (SK-MEL-5 melanoma): > 100 µM
TGI (SK-OV-3 ovarian): > 100 µM
TGI (SN12C renal): > 100 µM
TGI (SNB-19 CNS): > 100 µM
TGI (SNB-75 CNS): > 100 µM
TGI (SNB-78 CNS): > 100 µM
TGI (SR leukemia): > 100 µM
TGI (SW-620 colon): > 100 µM
TGI (U251 CNS): > 100 µM
TGI (UACC-257 melanoma): > 100 µM
TGI (UACC-62 melanoma): > 100 µM
TGI (UO-31 renal): > 100 µM

CC(C)=[CH][Sb]([Br])([CH]=C(C)C)([CH]=C(C)C)[c]1ccccc1
GI50 (786-0 renal): 43.7 µM
TGI (786-0 renal): > 100 µM
GI50 (A498 renal): 73 µM
TGI (A498 renal): > 100 µM
GI50 (A549 NSCLC): 16.6 µM
TGI (A549 NSCLC): > 100 µM
GI50 (ACHN renal): 36.9 µM
TGI (ACHN renal): > 100 µM
GI50 (CAKI-1 renal): > 100 µM
TGI (CAKI-1 renal): > 100 µM
GI50 (CCRF-CEM leukemia): 12.8 µM
TGI (CCRF-CEM leukemia): 46.6 µM
GI50 (COLO 205 colon): 4.52 µM
TGI (COLO 205 colon): 19.2 µM
GI50 (DLD-1 colon): 34 µM
TGI (DLD-1 colon): > 100 µM
GI50 (DMS 114 small cell lung): 13.1 µM
TGI (DMS 114 small cell lung): 46.3 µM
GI50 (DMS 273 small cell lung): 3.91 µM
TGI (DMS 273 small cell lung): 31 µM
GI50 (EKVX NSCLC): 3.95 µM
TGI (EKVX NSCLC): > 100 µM
GI50 (HCC-2998 colon): 27.2 µM
TGI (HCC-2998 colon): > 100 µM
GI50 (HCT-116 colon): 13 µM
TGI (HCT-116 colon): 47.2 µM
GI50 (HCT-15 colon): > 100 µM
TGI (HCT-15 colon): > 100 µM
GI50 (HL-60(TB) leukemia): 3.71 µM
TGI (HL-60(TB) leukemia): 15.6 µM
GI50 (HOP-62 NSCLC): 43.9 µM
TGI (HOP-62 NSCLC): > 100 µM
GI50 (HT29 colon): 20.6 µM
TGI (HT29 colon): > 100 µM
GI50 (IGROV1 ovarian): 16.9 µM
TGI (IGROV1 ovarian): > 100 µM
GI50 (K-562 leukemia): 11 µM
TGI (K-562 leukemia): 23 µM
GI50 (KM12 colon): 6.74 µM
TGI (KM12 colon): > 100 µM
GI50 (KM20L2 colon): 15.9 µM
TGI (KM20L2 colon): > 100 µM
GI50 (LOX IMVI melanoma): 35.4 µM
TGI (LOX IMVI melanoma): > 100 µM
GI50 (LXFL 529 NSCLC): 20.3 µM
TGI (LXFL 529 NSCLC): > 100 µM
GI50 (M14 melanoma): 20.6 µM
TGI (M14 melanoma): 82.4 µM
GI50 (M19-MEL melanoma): 6.14 µM
TGI (M19-MEL melanoma): > 100 µM
GI50 (MALME-3M melanoma): 6.07 µM
TGI (MALME-3M melanoma): > 100 µM
GI50 (MOLT-4 leukemia): 23.9 µM
TGI (MOLT-4 leukemia): > 100 µM
GI50 (NCI-H23 lung): 14.4 µM
TGI (NCI-H23 lung): 45.1 µM
GI50 (NCI-H460 lung): 21.6 µM
TGI (NCI-H460 lung): > 100 µM
GI50 (NCI-H522 lung): 3.32 µM
TGI (NCI-H522 lung): 13.9 µM
GI50 (OVCAR-3 ovarian): 4.32 µM
TGI (OVCAR-3 ovarian): 67.3 µM
GI50 (OVCAR-4 ovarian): 49.3 µM
TGI (OVCAR-4 ovarian): > 100 µM
GI50 (OVCAR-8 ovarian): 29.6 µM
TGI (OVCAR-8 ovarian): > 100 µM
GI50 (RPMI-8226 leukemia): 2.12 µM
TGI (RPMI-8226 leukemia): 15.7 µM
GI50 (RXF 393 renal): 11.4 µM
TGI (RXF 393 renal): 57.5 µM
GI50 (SF-268 CNS): 14.5 µM
TGI (SF-268 CNS): 58.2 µM
GI50 (SF-295 CNS): 20.2 µM
TGI (SF-295 CNS): 90.1 µM
GI50 (SK-MEL-2 melanoma): 26 µM
TGI (SK-MEL-2 melanoma): 86.7 µM
GI50 (SK-MEL-28 melanoma): 17.3 µM
TGI (SK-MEL-28 melanoma): > 100 µM
GI50 (SK-MEL-5 melanoma): 4.27 µM
TGI (SK-MEL-5 melanoma): 21.1 µM
GI50 (SK-OV-3 ovarian): 23 µM
TGI (SK-OV-3 ovarian): 74.6 µM
GI50 (SN12C renal): 25.4 µM
TGI (SN12C renal): > 100 µM
GI50 (SNB-19 CNS): 8.95 µM
TGI (SNB-19 CNS): 79 µM
GI50 (SR leukemia): 18.7 µM
TGI (SR leukemia): > 100 µM
GI50 (SW-620 colon): 32.6 µM
TGI (SW-620 colon): > 100 µM
GI50 (TK-10 renal): 34.9 µM
TGI (TK-10 renal): > 100 µM
GI50 (U251 CNS): 16.3 µM
TGI (U251 CNS): 74.2 µM
GI50 (UACC-257 melanoma): 6.35 µM
TGI (UACC-257 melanoma): > 100 µM
GI50 (UACC-62 melanoma): 16 µM
TGI (UACC-62 melanoma): 97.2 µM
GI50 (UO-31 renal): 23.2 µM
TGI (UO-31 renal): > 100 µM
GI50 (XF 498 CNS): 24.3 µM
TGI (XF 498 CNS): > 100 µM
